Data as given in ChEMBL document CHEMBL1122324, “New antihypertensive cannabinoids” (1983).

Tests used:
Details in all cases: route oral
Rattus norvegicus [1] = experiment: percentage decrease in heart rate after 1 hr at a dose of 10 mg/kg administered perorally in rats.; type: functional
Rattus norvegicus [2] = experiment: percentage decrease in heart rate after 24 hr at a dose of 10 mg/kg administered perorally in rats.; type: functional
Rattus norvegicus [3] = experiment: Percentage decrease in systolic blood pressure after 24 hr at 30 mg/kg administered perorally in rats; type: functional, Artery
Rattus norvegicus [4] = experiment: Percentage decrease in systolic blood pressure after 6 hr at 10 mg/kg administered perorally in rats; type: functional, Artery
Rattus norvegicus [5] = experiment: percentage decrease in heart rate after 24 hr at a dose of 30 mg/kg administered perorally in rats.; type: functional
Rattus norvegicus [6] = experiment: Percentage decrease in systolic blood pressure after 4 hr at 100 mg/kg administered perorally in rats; type: functional, Artery
Rattus norvegicus [7] = experiment: Percentage decrease in systolic blood pressure after 4 hr at 30 mg/kg administered perorally in rats; type: functional, Artery
Rattus norvegicus [8] = experiment: percentage decrease in heart rate after 1 hr at a dose of 30 mg/kg administered perorally in rats.; type: functional
Rattus norvegicus [9] = experiment: Percentage decrease in systolic blood pressure after 6 hr at 30 mg/kg administered perorally in rats; type: functional, Artery
Rattus norvegicus [10] = experiment: Percentage decrease in systolic blood pressure after 1 hr at 10 mg/kg administered perorally in rats; type: functional, Artery
Rattus norvegicus [11] = experiment: Percentage decrease in systolic blood pressure after 1 hr at 30 mg/kg administered perorally in rats; type: functional, Artery
Rattus norvegicus [12] = experiment: percentage decrease in heart rate after 4 hr at a dose of 10 mg/kg administered perorally in rats.; type: functional
Rattus norvegicus [13] = experiment: percentage decrease in heart rate after 6 hr at a dose of 10 mg/kg administered perorally in rats.; type: functional
Rattus norvegicus [14] = experiment: percentage decrease in heart rate after 6 hr at a dose of 30 mg/kg administered perorally in rats.; type: functional
Rattus norvegicus [15] = experiment: percentage decrease in heart rate after 4 hr at a dose of 30 mg/kg administered perorally in rats.; type: functional
Rattus norvegicus [16] = experiment: Percentage decrease in systolic blood pressure after 4 hr at 10 mg/kg administered perorally in rats; type: functional, Artery
Rattus norvegicus [17] = experiment: Percentage decrease in systolic blood pressure after 24 hr at 10 mg/kg administered perorally in rats; type: functional, Artery
Rattus norvegicus [18] = experiment: percentage decrease in heart rate after 4 hr at a dose of 100 mg/kg administered perorally in rats; type: functional

Row | SMILES | Heart rate (Rattus norvegicus [1]) [%] | Heart rate (Rattus norvegicus [2]) [%] | Decrease in Systolic blood pressure (Rattus norvegicus [3]) [%] | Decrease in Systolic blood pressure (Rattus norvegicus [4]) [%] | Heart rate (Rattus norvegicus [5]) [%] | Decrease in Systolic blood pressure (Rattus norvegicus [6]) [%] | Decrease in Systolic blood pressure (Rattus norvegicus [7]) [%] | Heart rate (Rattus norvegicus [8]) [%] | Decrease in Systolic blood pressure (Rattus norvegicus [9]) [%] | Decrease in Systolic blood pressure (Rattus norvegicus [10]) [%] | Decrease in Systolic blood pressure (Rattus norvegicus [11]) [%] | Heart rate (Rattus norvegicus [12]) [%] | Heart rate (Rattus norvegicus [13]) [%] | Heart rate (Rattus norvegicus [14]) [%] | Heart rate (Rattus norvegicus [15]) [%] | Decrease in Systolic blood pressure (Rattus norvegicus [16]) [%] | Decrease in Systolic blood pressure (Rattus norvegicus [17]) [%] | Heart rate (Rattus norvegicus [18]) [%]
1 | CCCCCC(C)C(C)c1cc(O)c2c(c1)OC(C)(C)C1=C2CN(C(=O)CN2CCOCC2)CC1 (stereo not given) | -21 | 8 | 10 | 3 | 0 | 40 | 18 | -2 | 27 | 4 | 10 | 7 | 11 | 20 | 16 | 8 | 2 | 37
2 | CCCCCC(C)C(C)c1cc(O)c2c(c1)OC(C)(C)C1CCN(C(=O)CO)CC21 (stereo not given) |  |  |  |  |  | 0 |  |  |  |  |  |  |  |  |  |  |  | 2
3 | CCCCCC(C)C(C)c1cc(O)c2c(c1)OC(C)(C)C1CCN(C(=O)CO)C=C21 (stereo not given) |  |  | -1 |  | -1 | 49 | -1 | 6 | 1 |  | 2 |  |  | 1 | -1 |  |  | 19
